From patent US20100197591A1, “4-AMINO-7,8-DIHYDROPYRIDO[4,3-d]PYRIMIDIN-5(6H)-ONE DERIVATIVES” (pfizer Inc, priority 2009, published 2010)

Experiments:
Format in all cases: biochemical
[1] = molecular target: T1, Human full-length diacylglycerol:acylCoA acyltransferase 1 (DGAT-1) (Homo sapiens, UniProt O75907); test: DGAT-1 Reduced Microsome Multidose Assay, G7329B Human IC50; conditions: crude membrane fraction of Sf9 cells expressing human DGAT-1; [14C]decanoylCoA; apparent IC50, average where tested more than once
T1 construct: Human full-length diacylglycerol:acylCoA acyltransferase 1 (DGAT-1) was expressed in Sf9 insect cells; made in house; host or cells: Sf9 insect cells (baculovirus); crude membrane/microsome fraction
T1 sequence (O75907 1-488): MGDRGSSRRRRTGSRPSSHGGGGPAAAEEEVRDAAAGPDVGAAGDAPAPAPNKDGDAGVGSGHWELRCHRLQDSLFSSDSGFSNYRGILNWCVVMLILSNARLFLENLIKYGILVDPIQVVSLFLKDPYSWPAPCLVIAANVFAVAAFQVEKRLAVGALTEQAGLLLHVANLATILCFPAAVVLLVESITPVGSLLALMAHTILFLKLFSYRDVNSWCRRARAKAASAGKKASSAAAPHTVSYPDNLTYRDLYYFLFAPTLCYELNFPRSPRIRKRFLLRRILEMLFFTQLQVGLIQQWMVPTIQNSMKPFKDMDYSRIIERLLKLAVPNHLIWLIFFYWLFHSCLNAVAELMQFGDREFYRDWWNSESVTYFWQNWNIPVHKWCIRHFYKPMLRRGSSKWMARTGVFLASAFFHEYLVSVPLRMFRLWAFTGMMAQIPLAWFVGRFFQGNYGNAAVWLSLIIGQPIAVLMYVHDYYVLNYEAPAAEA
Method: (§1) Human full-length diacylglycerol:acylCoA acyltransferase 1 (DGAT-1) was expressed in Sf9 insect cells which are then lysed and a crude membrane fraction (105,000×g pellet) was prepared. The DGAT-1 gene is a human DGAT-1 gene described in J Biol Chem 273:26765 (1998) and U.S. Pat. No. 6,100,077.
(§2) In vitro inhibition of DGAT-1 was measured using a modification, further described below, of the assay methodology described in U.S. Pat. No. 6,994,956 B2.
(§3) The cells were cultured as follows. Sf9 cells (20 L) were infected with 4 mL of DGAT-1 Baculovirus Infected Insect Cells (BIIC) for 72 hours in a Wave Bioreactor System 20/50P (Wave Biotec/GE Healthcare).
Crude DGAT-1 microsomes were prepared as follows. Cell pellets were washed once with ice-cold Dulbecco's phosphate-buffered saline. Cells were collected in tabletop centrifuge (Beckman GS-6KR), 15 minutes, 2000×g, 4° C. Twenty (20) mL of ice-cold Microsome Buffer (MB) was added per 5 g of cell pellet. The suspension was passed through a microfluidizer 3 times (18K psi). […] The microsome concentration was determined using Bio-Rad Protein DC Protein Assay. […]
The Microsome Buffer, used for microsome preparation, was prepared by conventional means and contained 125 mM sucrose, 3 mM imidazole, 0.2 μg/mL aprotinin, 0.2 μg/mL leupeptin and 5 mM dithiothreitol (Cleland's reagent), DGAT-1 activity was measured in 384-well format in a total assay volume of 25 μl that contained, Hepes buffer (50 mM, pH 7.5), MgCl2 (10 mM), bovine serum albumin (0.6 mg/ml), [^14C]decanoylCoA (20 μM, 58 Ci/mol) and membranes (25 μg/ml) into which 1,2 dioleoyl-sn-glycerol (75 μM) in acetone has already been incorporated. […]
Reaction mixtures were neutralized by the addition of 15 μl of tris(hydroxy-methyl)aminomethane (1M, pH 8.0) and then mixed by trituration with 37.5 μl of Microscint™-E (Perkin Elmer). Plates contents were allowed to partition for 15 to 30 min before ^14C was measured in a scintillation spectrometer (Wallac Microbeta Trilux 1450-030 liquid scintillation counter 12 detector in the top-count DPM mode). […]

[2] = molecular target: T1, Human full-length diacylglycerol:acylCoA acyltransferase 1 (DGAT-1); test: DGAT-1 Reduced Microsome Multidose Assay, G7329E Human IC50; conditions: crude membrane fraction of Sf9 cells expressing human DGAT-1; [14C]decanoylCoA; apparent IC50, average where tested more than once
Method: as §1, §2, §3
(§4) Crude DGAT-1 microsomes were prepared as follows. Cell pellets were washed once with ice-cold Dulbecco's phosphate-buffered saline. Cells were collected in tabletop centrifuge (Beckman GS-6KR), 15 minutes, 2000×g, 4° C. Twenty (20) mL of ice-cold Microsome Buffer (MB) was added per 5 g of cell pellet. The suspension was passed through a microfluidizer 3 times (18K psi). The lysate was transferred to centrifuge tubes and centrifuged for 20 minutes at 5000×g (Beckman-Coulter, Inc. Allegra® 64R High-Speed Refrigerated Benchtop Centrifuge, F0650 rotor) at 4° C. The supernatant was transferred to ultracentrifuge tubes and centrifuged at 125,000×g for 1 hour in a Beckman Ti-45 rotor, 4° C. The supernatant fluid was discarded. The pellet was resuspended in 70 mL of MB by sonication. The microsome concentration was determined using Bio-Rad Protein DC Protein Assay. The microsomes were filter sterilized with a 0.22 μm filter. The samples were portioned, flash frozen and stored at −80° C.
(§5) The Microsome Buffer, used for microsome preparation, was prepared by conventional means and contained 125 mM sucrose, 3 mM imidazole, 0.2 μg/mL aprotinin, 0.2 μg/mL leupeptin and 5 mM dithiothreitol (Cleland's reagent), DGAT-1 activity was measured in 384-well format in a total assay volume of 25 μl that contained, Hepes buffer (50 mM, pH 7.5), MgCl2 (10 mM), bovine serum albumin (0.6 mg/ml), [^14C]decanoylCoA (20 μM, 58 Ci/mol) and membranes (25 μg/ml) into which 1,2 dioleoyl-sn-glycerol (75 μM) in acetone has already been incorporated. Inhibitors in DMSO were pre-incubated with membranes before initiating the DGAT-1 reaction by the addition of decanoylCoA. […] The DMSO concentration was 2.5%. The inhibitors were present at a range of eight concentrations to generate an apparent IC50 for each compound. The eight inhibitor concentration employed ranged from 10 μM to 3 nM (from high to low concentration). Specifically, the eight concentrations used were 10 μM, 3 μM, 1 μM, 300 nM, 100 nM, 30 nM, 10 nM and 3 nM.
(§6) Reaction mixtures were neutralized by the addition of 15 μl of tris(hydroxy-methyl)aminomethane (1M, pH 8.0) and then mixed by trituration with 37.5 μl of Microscint™-E (Perkin Elmer). Plates contents were allowed to partition for 15 to 30 min before ^14C was measured in a scintillation spectrometer (Wallac Microbeta Trilux 1450-030 liquid scintillation counter 12 detector in the top-count DPM mode). Percent inhibition of test compounds was computed as […].
Four separate assays were performed using 4 different methods of analysis. The method of analysis of Assay 1 was the same as Assay 4 (described above) except microsomes were utilized at 25 μg/mL instead of 5 μg/mL. […]

[3] = molecular target: T1, Human full-length diacylglycerol:acylCoA acyltransferase 1 (DGAT-1); test: DGAT-1 Reduced Microsome Multidose Assay, G7829E Human IC50; conditions: crude membrane fraction of Sf9 cells expressing human DGAT-1; [14C]decanoylCoA; terminated with 5 μl of 1.4% phosphoric acid instead of HCl; average where tested more than once
Method: as §1, §2, §3, §4, §5, §6
Four separate assays were performed using 4 different methods of analysis. The method of analysis of Assay 1 was the same as Assay 4 (described above) except microsomes were utilized at 25 μg/mL instead of 5 μg/mL. The method of analysis of Assay 2 was the same as Assay 4 (described above) except eleven (11) concentrations of inhibitor were employed instead of eight (8). The method of analysis of Assay 3 was the same as Assay 2 except the compounds were serially diluted in a different laboratory.
Where this DGAT-1 inhibition assay was performed on a compound more than once, an average is provided for that compound.

[4] = molecular target: T1, Human full-length diacylglycerol:acylCoA acyltransferase 1 (DGAT-1); test: DGAT-1 Reduced Microsome Multidose Assay, G7329F Human IC50; conditions: crude membrane fraction of Sf9 cells expressing human DGAT-1; [14C]decanoylCoA; apparent IC50, average where tested more than once
Procedure, shortened: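 Sf9-expressed full-length DGAT-1 microsomes (25 or 5 μg/mL) with incorporated 1,2-dioleoyl-sn-glycerol (75 μM), pH 7.5 Hepes, 20 μM [14C]decanoylCoA, 2.5% DMSO, inhibitor pre-incubated. Eight (3 nM–10 μM) or eleven concentrations; 14C product by scintillation gives apparent IC50, averaged over repeats.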

SMILES	IC50 [1] [nM]	IC50 [2] [nM]	IC50 [3] [nM]	IC50 [4] [nM]
COc1nc(N)c2c(n1)CCN(c1ccc(C(C)(C)c3ncno3)cc1)C2=O (single isomer, unassigned) [Example 3L]	–	–	67.3	68.9
COc1nc(N)c2c(n1)CCN(c1ccc(C(C)(C)C)cc1)C2=O [Example 6A, 4-amino-6-(4-tert-butylphenyl)-2-methoxy-7,8-dihydropyrido[4,3-d]pyrimidin-5(6H)-one]	–	49	–	8.88
COc1nc(N)c2c(n1)CCN(c1ccc(C(=O)OCC(C)(C)C)cc1)C2=O [Example 2F, 2,2-dimethylpropyl 4-(4-amino-2-methoxy-5-oxo-7,8-dihydropyrido[4,3-d]pyrimidin-6(5H)-yl)benzoate]	–	–	55.1	112
COc1nc(N)c2c(n1)CCN(c1ccc(C(C)(C)c3ncon3)cc1)C2=O (single isomer, unassigned) [Example 3M, 4-amino-2-methoxy-6-{4-[1-methyl-1-(1,2,4-oxadiazol-3-yl)ethyl]phenyl}-7,8-dihydropyrido[4,3-d]pyrimidin-5(6H)-one]	–	–	55.2	77.8
COc1nc(N)c2c(n1)CCN(c1ccc(C(C)(C)c3cnco3)cc1)C2=O [Example 1M, 4-amino-2-methoxy-6-{4-[1-methyl-1-(1,3-oxazol-5-yl)ethyl]phenyl}-7,8-dihydropyrido[4,3-d]pyrimidin-5(6H)-one]	–	–	11.3	–
COc1nc(N)c2c(n1)CCN(c1ccc3c(c1)COC3(C)C)C2=O [Example 1U, 4-amino-6-(1,1-dimethyl-1,3-dihydro-2-benzofuran-5-yl)-2-methoxy-7,8-dihydropyrido[4,3-d]pyrimidin-5(6H)-one]	–	–	229	–
COc1nc(N)c2c(n1)CCN(c1ccc(C3(C(N)=O)CCCCC3)cc1)C2=O [Example 5B, 1-[4-(4-amino-2-methoxy-5-oxo-7,8-dihydropyrido[4,3-d]pyrimidin-6(5H)-yl)phenyl]cyclohexanecarboxamide]	–	–	184	–
COc1nc(N)c2c(n1)CCN(c1ccc(C(C)(C)c3ccno3)cc1)C2=O [Example 3C, 4-amino-6-[4-(1-isoxazol-5-yl-1-methylethyl)phenyl]-2-methoxy-7,8-dihydropyrido[4,3-d]pyrimidin-5(6H)-one]	–	–	4.5	–
COc1nc(N)c2c(n1)CCN(c1ccc(C(C)C)cc1)C2=O [Example 6E, 4-amino-6-(4-isopropylphenyl)-2-methoxy-7,8-dihydropyrido[4,3-d]pyrimidin-5(6-H)-one]	–	58.5	–	17.1
COc1nc(N)c2c(n1)CCN(c1ccc(C3(O)CCCCC3)cc1)C2=O [Example 1V, 4-amino-6-[4-(1-hydroxycyclohexyl)phenyl]-2-methoxy-7,8-dihydropyrido[4,3-d]pyrimidin-5(6H)-one]	–	–	113	–
COc1nc(N)c2c(n1)CCN(c1ccc(C(C)(C)c3ccon3)cc1)C2=O [Example 3B, 4-amino-6-[4-(1-isoxazol-3-yl-1-methylethyl)phenyl]-2-methoxy-7,8-dihydropyrido[4,3-d]pyrimidin-5(6H)-one]	–	–	55	–

Results, then the compound that gave them:

IC50 [1] [nM]	IC50 [2] [nM]	IC50 [3] [nM]	IC50 [4] [nM]	SMILES
5030	13700	–	–	Cc1nc(N)c2c(n1)CCN(c1ccc(I)cc1)C2=O [Example 9Q, 4-amino-6-(4-iodophenyl)-2-methyl-7,8-dihydropyrido[4,3-d]pyrimidin-5(6H)-one]
1030	–	–	–	Cc1nc(N)c2c(n1)CCN(c1ccc(C3CCC(CCO)CC3)cc1)C2=O (centres unmarked) [Example 9R, 4-amino-6-{4-[4-(2-hydroxyethyl)cyclohexyl]phenyl}-2-methyl-7,8-dihydropyrido[4,3-d]pyrimidin-5(6H)-one]
–	133	–	32.5	COc1nc(N)c2c(n1)CCN(c1ccc([C@H]3CC[C@H](CC#N)CC3)cc1)C2=O [Example 7C, {trans-4-[4-(4-amino-2-methoxy-5-oxo-7,8-dihydropyrido[4,3-d]pyrimidin-6(5H)-yl)phenyl]cyclohexyl}acetonitrile]
–	124	–	–	COc1nc(N)c2c(n1)CCN(c1ccc(I)cc1)C2=O [Example 9E, 4-amino-6-(4-iodophenyl)-2-methoxy-7,8-dihydropyrido[4,3-d]pyrimidin-5(6H)-one]
1890	–	–	–	Cc1nc(N)c2c(n1)CCN(c1ccc(C3CCC(CC#N)CC3)cc1)C2=O (centres unmarked) [Example 9T, {4-[4-(4-amino-2-methyl-5-oxo-7,8-dihydropyrido[4,3-d]pyrimidin-6(5H)-yl)phenyl]cyclohexyl}acetonitrile]
